Laboratory results taken from US20130085283A1, “GERANYLGERANYLACETONE DERIVATIVES” (Coyote Pharmaceuticals, Inc., priority 2011, published 2013).
Marks after values point to notes of the source that are not given here.

How the values were obtained:
Neuro2A cells = experiment: In vitro neuroprotection: Neuro2A cells cultured with GGA derivative with or without GGTI-298, cells that extended neurites counted; format: cell-based, mouse; conditions: for Activity 1 μM: compound at 1 μM; for Activity 1 μM / Activity 1 nm: cells that extended neurites counted, normalized by the activity of CNS-102 (GGA trans-isomer); for Activity 1 nm: compound at 1 nm (so in the source)
Protocol: Neuro2A cells were cultured with a GGA derivative in the presence or absence of an inhibitor against a G-protein (GGTI-298). After differentiation was induced, cells that extended neurites were counted as an activity of the compound. The activities are shown in arbitrary units and were normalized by the activity of CNS-102 (GGA trans-isomer) in each parallel experiments.

Sprague-Dawley rats = experiment: Neurodegeneration induced by Kainic acid in rats (hippocampus CA3 neuron damage, seizure behavior scores); format: in vivo, rat; conditions: oral dosing, Kainic acid injected
Protocol: The compounds and the compositions of this invention are tested in vivo for their ability to alleviate neurodegenerations induced by Kainic acid. See, for example, PCT Pat. App. No. PCT/US2011/050071, supra. A compound or composition of this invention is orally dosed to Sprague-Dawley rats, and Kainic acid is injected. Seizure behaviors are observed and scored (see, e.g., R. J. Racine, Modification of seizure activity by electrical stimulation: II. Motor seizure, Electroencephalogr. Clin. Neurophysiol. 32 (1972) 281-294). Brain tissues of rats are sectioned on histology slides, and neurons in hippocampus tissues are stained by Nissl.
The indicated compounds or vehicle control were orally dosed to Sprague-Dawley rats, and Kainic acid was injected. Seizure behaviors were observed and scored (Ref. R. J. Racine, Modification of seizure activity by electrical stimulation: 11. Motor seizure, Electroencephalogr. Clin. Neurophysiol. 32 (1972) 281-294. Modifications were made for the methods). Brain tissues of rats were sectioned on histology slides, and neurons in hippocampus tissues were stained by Nissl. Neurons damaged by Kainic acid (mean of hippocampus CA3 neurons damaged) and behavior scores (mean of seizure behavior scores) were quantified.

HSP70 [1] = experiment: Expression of heat shock proteins in vitro (Western blotting of Neuro2A lysates); format: cell-based; conditions: Mus musculus, N2a, retinoic acid differentiation, GGTI-298, 24 hrs; for fold induction at 0.1 µM: 100 nM, signal in the absence of the compounds normalized as 1, read-out: HSP70 Western signal, Compound Dose 100 nM; for fold induction at 1 µM: signal in the absence of the compounds normalized as 1, read-out: HSP70 Western signal, Compound Dose 1 μM; for fold induction at 10 µM: signal in the absence of the compounds normalized as 1, read-out: HSP70 Western signal, Compound Dose 10 μM
Protocol: Mouse Neuro2A neuroblastoma cells were cultured in DMEM supplemented with 10% FBS for 24 hrs. The cells were treated with various concentrations of the indicated compounds. Then differentiation was induced by retinoic acid in DMEM supplemented with 2% FBS. An inhibitor against a G-protein, GGTI-298, was incubated. After 24 hrs incubation, cells were harvested, and lysates were prepared from the harvested cells. Western blotting analysis was done for the same protein amounts of these lysates, and western signals were detected by chemiluminescence and quantified in parallel with comparisons of those detected in the absence of the compound. Western signals in the absence of the compounds were normalized as 1.

HSP70 [2] = experiment: HSP70 protein in rat brain lysates by Western blotting after oral dosing; format: in vivo
Protocol: The compounds tabulated below or vehicle controls were orally dosed at 12 mg/kg to Sprague-Dawley rats. Rat brain tissues were extracted in various time points after the oral dosing. Lysates were prepared from the harvested brain tissues. Western blotting analysis was done for the same protein amounts of these lysates, and western signals of HSP70 were detected by chemiluminescence and quantified in parallel with comparisons of those detected at time 0 hr. Western signals at time 0 hr were normalized as 100.

CCOC(=O)C(C/C=C(\C)CC/C=C(\C)CCC=C(C)C)C(C)=O (stereo not shown)
Activity 1 μM (Neuro2A cells): 259* arbitrary units

CCC(=O)CC/C=C(\C)CC/C=C(\C)CC/C=C(\C)CCC=C(C)C
Activity 1 nm (Neuro2A cells): 186 arbitrary units

CCOC(=O)C(C/C=C(\C)CC/C=C(\C)CC/C=C(\C)CCC=C(C)C)C(=O)C12CC3CC(CC(C3)C1)C2 (stereo not shown)
Activity 1 nm (Neuro2A cells): 145 arbitrary units

CCOC(=O)C(C/C=C(\C)CC/C=C(\C)CC/C=C(\C)CCC=C(C)C)C(=O)C(C)C (stereo not shown)
Activity 1 nm (Neuro2A cells): 173 arbitrary units

CCOC(=O)C(CC=C1CCCCC1)C(C)=O (stereo not shown)
Activity 1 μM (Neuro2A cells): 162* arbitrary units

CCOC(=O)/C=C(\C)CCC=C1CCCCC1
Activity 1 μM (Neuro2A cells): 161* arbitrary units

C/C(=C\CO)CCC=C1CCCCC1
Activity compared with control experiment with no addition of compound (Neuro2A cells; in words, concentration not given): * Under the conditions tested, this compound was not found to have activity beyond that of the control for this assay.

CCOC(=O)C=C1CCCCC1
Activity 1 μM (Neuro2A cells): 240* arbitrary units

CC(C)=CCC/C(C)=C/CC/C(C)=C/CC/C(C)=C/CC/C(C)=N/OCc1ccccc1
Activity 1 μM (Neuro2A cells): 287 arbitrary units

CCO/N=C(\C)CC/C=C(\C)CC/C=C(\C)CC/C=C(\C)CCC=C(C)C
Mean of Hippocampus CA3 neurons damaged (Sprague-Dawley rats; Vehicle 17.59 in this table): 14.66 Arbitrary units

CC(C)=CCC/C(C)=C/CC/C(C)=C/CC/C(C)=C/CC/C(C)=C/CCC(=O)C1CC1
Mean of Hippocampus CA3 neurons damaged (Sprague-Dawley rats; Vehicle 6.59 in this table): 5.98 Arbitrary units

CC(C)=CCC/C(C)=C/CC/C(C)=C/CC/C(C)=C/C=O
Mean of Hippocampus CA3 neurons damaged (Sprague-Dawley rats; Vehicle 1.72 in this table): 1.58 Arbitrary units

CC(C)=CCC/C(C)=C/CC/C(C)=C/CC/C(C)=C/CC/C(C)=N/OCC(=O)O
Mean of Seizure behaviors scores (Sprague-Dawley rats; Vehicle 26.68 in this table): 13.37 Arbitrary units

CC(C)=CCC/C(C)=C/CC/C(C)=C/CCC(C)OC(=O)NCC1CCCCC1 (stereo not shown)
fold induction at 0.1 µM (HSP70 [1]): 1.55 | fold induction at 1 µM (HSP70 [1]): 1.49 | fold induction at 10 µM (HSP70 [1]): 2.53

CCC(=O)CC/C=C(\CC)CC/C=C(\C)CC/C=C(\C)CCC=C(C)C
fold induction at 0.1 µM (HSP70 [1]): 1.79 | fold induction at 1 µM (HSP70 [1]): 6.08 | fold induction at 10 µM (HSP70 [1]): 4.76

CC(C)=CCC/C(C)=C/CC/C(C)=C/CC/C(C)=C/CC1CCCCC1=O (stereo not shown) [drawing 150]
Mean of Hippocampus CA3 neurons damaged (Sprague-Dawley rats; Vehicle 15.61 in this table): 2.64 Arbitrary units

CC(=O)CC/C=C(\C)CC/C=C(\C)CC/C=C(\C)CCC=C(C)C [drawing 151]
Mean of Hippocampus CA3 neurons damaged (Sprague-Dawley rats; Vehicle 15.61 in this table): 9.46 Arbitrary units

CC(C)=CCC/C(C)=C/CC/C(C)=C/CC/C(C)=C/CCC1(C)OCCO1 [drawing 152]
Mean of Hippocampus CA3 neurons damaged (Sprague-Dawley rats; Vehicle 15.31 in this table): 12.11 Arbitrary units

CCOC(=O)C(C/C=C(\C)CC/C=C(\C)CC/C=C(\C)CCC=C(C)C)C(C)=O (stereo not shown) [drawing 153]
Mean of Hippocampus CA3 neurons damaged (Sprague-Dawley rats; Vehicle ~7.74 in this table): ~5.57 Arbitrary units

CC(=O)CC/C=C(\C)CC/C=C(\C)CCC=C(C)C [drawing 154]
Mean of Hippocampus CA3 neurons damaged (Sprague-Dawley rats; Vehicle 19.95 in this table): 10.61 Arbitrary units

CC/C(=C\CCC(=O)C12CC3CC(CC(C3)C1)C2)CC/C=C(\C)CC/C=C(\C)CCC=C(C)C [drawing 155]
Mean of Hippocampus CA3 neurons damaged (Sprague-Dawley rats; Vehicle 19.95 in this table): 12.54 Arbitrary units

COC(=O)C(NC(=O)OC(C)CC/C=C(\C)CC/C=C(\C)CCC=C(C)C)C(C)C (stereo not shown) [drawing 156]
Mean of Hippocampus CA3 neurons damaged (Sprague-Dawley rats; Vehicle 9.76 in this table): 6.61 Arbitrary units

CC(=O)CC/C=C(\C)CC/C=C(\C)CC/C=C(\C)CC/C=C(\C)CCC=C(C)C [drawing 158]
Mean of Hippocampus CA3 neurons damaged (Sprague-Dawley rats; Vehicle 12.71 in this table): 2.22 Arbitrary units

CC(C)=CCC/C(C)=C/CC/C(C)=C/CC/C(C)=C/COC(=O)C1CCCCC1 [drawing 159]
Mean of Hippocampus CA3 neurons damaged (Sprague-Dawley rats; Vehicle 6.59 in this table): 1.55 Arbitrary units

CC(C)=CCC/C(C)=C/CC/C(C)=C/CC/C(C)=C/CCC(=O)C(C)(C)C [drawing 161]
Mean of Hippocampus CA3 neurons damaged (Sprague-Dawley rats; Vehicle 12.91 in this table): 8.08 Arbitrary units

CCCCCNC(=O)OC(C)CC/C=C(\C)CC/C=C(\C)CCC=C(C)C (stereo not shown) [drawing 162]
Mean of Hippocampus CA3 neurons damaged (Sprague-Dawley rats; Vehicle 7.09 in this table): 14.73 Arbitrary units

CC(C)=CCC/C(C)=C/CC/C(C)=C/CC/C(C)=C/CCC1(C)OCCO1 [drawing 165]
Mean of Seizure behaviors scores (Sprague-Dawley rats; Vehicle 41.56 in this table): 16.35 Arbitrary units

CC(C)=CCC/C(C)=C/CC/C(C)=C/CC/C(C)=C/CCC(=O)C(C)(C)C [drawing 166]
Mean of Seizure behaviors scores (Sprague-Dawley rats; Vehicle 19.75 in this table): 11.25 Arbitrary units

CC(C)=CCC/C(C)=C/CC/C(C)=C/CC/C(C)=C/COC(=O)C1CCCCC1 [drawing 167]
Mean of Seizure behaviors scores (Sprague-Dawley rats; Vehicle 26.31 in this table): 18.68 Arbitrary units

CCOC(=O)C(C/C=C(\C)CC/C=C(\C)CC/C=C(\C)CCC=C(C)C)C(C)=O (stereo not shown) [drawing 168]
Mean of Seizure behaviors scores (Sprague-Dawley rats; Vehicle 13.37 in this table): 3.83 Arbitrary units

CC(C)=CCC/C(C)=C/CC/C(C)=C/CC/C(C)=C/COC(=O)C1CCCCC1 [drawing 169]
fold induction at 0.1 µM (HSP70 [1]): 2.53 | fold induction at 1 µM (HSP70 [1]): 2.34 | fold induction at 10 µM (HSP70 [1]): 2.53

CCCCCNC(=O)OC(C)CC/C=C(\C)CC/C=C(\C)CCC=C(C)C (stereo not shown) [drawing 170]
fold induction at 0.1 µM (HSP70 [1]): 1.16 | fold induction at 1 µM (HSP70 [1]): 1.26 | fold induction at 10 µM (HSP70 [1]): 1.93

CC(=O)CC/C=C(\C)CC/C=C(\C)CC/C=C(\C)CC/C=C(\C)CCC=C(C)C [drawing 171]
fold induction at 0.1 µM (HSP70 [1]): 1.92 | fold induction at 1 µM (HSP70 [1]): 2.78 | fold induction at 10 µM (HSP70 [1]): 3.53

CC(C)=CCC/C(C)=C/CC/C(C)=C/CC/C(C)=C/CCC1(C)OCCO1 [drawing 172]
fold induction at 0.1 µM (HSP70 [1]): 3.16 | fold induction at 1 µM (HSP70 [1]): 3.5 | fold induction at 10 µM (HSP70 [1]): 3.49

CC(C)=CCC/C(C)=C/CC/C(C)=C/CC/C(C)=C/CC1CCCCC1=O (stereo not shown) [drawing 173]
fold induction at 0.1 µM (HSP70 [1]): 3.85 | fold induction at 1 µM (HSP70 [1]): 3.78 | fold induction at 10 µM (HSP70 [1]): 2.25

CC(=O)CC/C=C(\C)CC/C=C(\C)CCC=C(C)C [drawing 175]
fold induction at 0.1 µM (HSP70 [1]): 1.87 | fold induction at 1 µM (HSP70 [1]): 5.86 | fold induction at 10 µM (HSP70 [1]): 1.79

CC/C(=C\CCC(=O)C12CC3CC(CC(C3)C1)C2)CC/C=C(\C)CC/C=C(\C)CCC=C(C)C [drawing 177]
fold induction at 0.1 µM (HSP70 [1]): 1.71 | fold induction at 1 µM (HSP70 [1]): 2 | fold induction at 10 µM (HSP70 [1]): 1

CC(=O)CC/C=C(\C)CC/C=C(\C)CC/C=C(\C)CCC=C(C)C [drawing 178]
fold induction at 0.1 µM (HSP70 [1]): 1.38 | fold induction at 1 µM (HSP70 [1]): 2.05 | fold induction at 10 µM (HSP70 [1]): 2.14

COC(=O)C(NC(=O)OC(C)CC/C=C(\C)CC/C=C(\C)CCC=C(C)C)C(C)C (stereo not shown) [drawing 179]
fold induction at 0.1 µM (HSP70 [1]): 1.26 | fold induction at 1 µM (HSP70 [1]): 1.07 | fold induction at 10 µM (HSP70 [1]): 1.29

CC(C)=CCC/C(C)=C/CC/C(C)=C/CC/C(C)=C/CC1CCCCC1=O (stereo not shown) [drawing 180]
Western signal of HSP70 in brain (HSP70 [2]; 12 hr after oral 12 mg/kg, time 0 hr = 100, Vehicle 102%): 116% | Western signal of HSP70 in brain (HSP70 [2]; 48 hr after oral 12 mg/kg, time 0 hr = 100, Vehicle 105%): 114% | Western signal of HSP70 in brain (HSP70 [2]; 96 hr after oral 12 mg/kg, time 0 hr = 100, Vehicle 99%): 97%
